Laboratory results taken from PMC6540285, “Evaluation of Protein Kinase Inhibitors with PLK4 Cross-Over Potential in a Pre-Clinical Model of Cancer” (International Journal of Molecular Sciences, 2019).

Assays:
ACVR1B (ALK4) = ACVR1B (ALK4) (Homo sapiens, UniProt P36896); assay: SelectScreen kinase profiling, ZLYTE; type: biochemical
PKN2 (PRK2) = PKN2 (PRK2) (Homo sapiens, UniProt Q16513); assay: SelectScreen kinase profiling, LanthaScreen binding
CDK4/cyclin D3 = CDK4/cyclin D3 (Homo sapiens, UniProt P11802); assay: SelectScreen kinase profiling, Adapta; type: biochemical; settings: CDK4/cyclin D3, 10 µM
MAP2K2 (MEK2) = MAP2K2 (MEK2) (Homo sapiens, UniProt P36507); assay: SelectScreen kinase profiling, LanthaScreen binding
STK22B (TSSK2) = STK22B (TSSK2) (Homo sapiens, UniProt Q96PF2); assay: SelectScreen kinase profiling, ZLYTE; type: biochemical
NUAK2 = NUAK2 (Homo sapiens, UniProt Q9H093); assay: SelectScreen kinase profiling, LanthaScreen binding; settings: NUAK2, 10 µM
ROS1 = ROS1 (Homo sapiens, UniProt P08922); assay: SelectScreen kinase profiling, ZLYTE; type: biochemical; settings: ROS1, 10 µM
DDR2 T654M = DDR2 T654M (Homo sapiens, UniProt Q16832, T654M); assay: SelectScreen kinase profiling, LanthaScreen binding
CDK5/p25 = CDK5/p25 (Homo sapiens, UniProt Q00535); assay: SelectScreen kinase profiling, ZLYTE; type: biochemical; settings: CDK5/p25, 10 µM
GRK6 = GRK6 (Homo sapiens, UniProt P43250); assay: SelectScreen kinase profiling, ZLYTE; type: biochemical; settings: GRK6, 10 µM
ABL1 F317I = ABL1 F317I (Homo sapiens, UniProt P00519, F317I); assay: SelectScreen kinase profiling, ZLYTE; type: biochemical
AMPK (A1/B2/G1) = AMPK (A1/B2/G1) (Homo sapiens, UniProt Q13131); assay: SelectScreen kinase profiling, LanthaScreen binding
CLK1 = CLK1 (Homo sapiens, UniProt P49759); assay: SelectScreen kinase profiling, ZLYTE; type: biochemical; settings: CLK1, 10 µM
PDK1 = PDK1 (Homo sapiens, UniProt O15530); assay: SelectScreen kinase profiling, ZLYTE; type: biochemical; settings: PDK1, 10 µM
RET A883F = RET A883F (Homo sapiens, UniProt P07949, A883F); assay: SelectScreen kinase profiling, ZLYTE; type: biochemical
BMPR1A (ALK3) = BMPR1A (ALK3) (Homo sapiens, UniProt P36894); assay: SelectScreen kinase profiling, LanthaScreen binding
PI4KA (PI4K alpha) = PI4KA (PI4K alpha) (Homo sapiens, UniProt P42356); assay: SelectScreen kinase profiling, Adapta; type: biochemical
PIP5K1A = PIP5K1A (Homo sapiens, UniProt Q99755); assay: SelectScreen kinase profiling, Adapta; type: biochemical
AKT2 (PKB beta) = AKT2 (PKB beta) (Homo sapiens, UniProt P31751); assay: SelectScreen kinase profiling, ZLYTE; type: biochemical
MST4 = MST4 (Homo sapiens, UniProt Q9P289); assay: SelectScreen kinase profiling, ZLYTE; type: biochemical; settings: MST4, 10 µM
NTRK2 (TRKB) = NTRK2 (TRKB) (Homo sapiens, UniProt Q16620); assay: SelectScreen kinase profiling, ZLYTE; type: biochemical
CDK6/cyclin D1 = CDK6/cyclin D1 (Homo sapiens, UniProt Q00534); assay: SelectScreen kinase profiling, Adapta; type: biochemical; settings: CDK6/cyclin D1, 10 µM
PRKCI (PKC iota) = PRKCI (PKC iota) (Homo sapiens, UniProt P41743); assay: SelectScreen kinase profiling, ZLYTE; type: biochemical
STK17A (DRAK1) = STK17A (DRAK1) (Homo sapiens, UniProt Q9UEE5); assay: SelectScreen kinase profiling, LanthaScreen binding
BRAF = BRAF (Homo sapiens, UniProt P15056); assay: SelectScreen kinase profiling, ZLYTE; type: biochemical
RIPK2 = RIPK2 (Homo sapiens, UniProt O43353); assay: SelectScreen kinase profiling, LanthaScreen binding; settings: RIPK2, 10 µM
PLK4 = target: T1, PLK4 (Homo sapiens, UniProt O00444); assay: as above; settings: PLK4, 10 µM
T1 sequence (O00444 1-970): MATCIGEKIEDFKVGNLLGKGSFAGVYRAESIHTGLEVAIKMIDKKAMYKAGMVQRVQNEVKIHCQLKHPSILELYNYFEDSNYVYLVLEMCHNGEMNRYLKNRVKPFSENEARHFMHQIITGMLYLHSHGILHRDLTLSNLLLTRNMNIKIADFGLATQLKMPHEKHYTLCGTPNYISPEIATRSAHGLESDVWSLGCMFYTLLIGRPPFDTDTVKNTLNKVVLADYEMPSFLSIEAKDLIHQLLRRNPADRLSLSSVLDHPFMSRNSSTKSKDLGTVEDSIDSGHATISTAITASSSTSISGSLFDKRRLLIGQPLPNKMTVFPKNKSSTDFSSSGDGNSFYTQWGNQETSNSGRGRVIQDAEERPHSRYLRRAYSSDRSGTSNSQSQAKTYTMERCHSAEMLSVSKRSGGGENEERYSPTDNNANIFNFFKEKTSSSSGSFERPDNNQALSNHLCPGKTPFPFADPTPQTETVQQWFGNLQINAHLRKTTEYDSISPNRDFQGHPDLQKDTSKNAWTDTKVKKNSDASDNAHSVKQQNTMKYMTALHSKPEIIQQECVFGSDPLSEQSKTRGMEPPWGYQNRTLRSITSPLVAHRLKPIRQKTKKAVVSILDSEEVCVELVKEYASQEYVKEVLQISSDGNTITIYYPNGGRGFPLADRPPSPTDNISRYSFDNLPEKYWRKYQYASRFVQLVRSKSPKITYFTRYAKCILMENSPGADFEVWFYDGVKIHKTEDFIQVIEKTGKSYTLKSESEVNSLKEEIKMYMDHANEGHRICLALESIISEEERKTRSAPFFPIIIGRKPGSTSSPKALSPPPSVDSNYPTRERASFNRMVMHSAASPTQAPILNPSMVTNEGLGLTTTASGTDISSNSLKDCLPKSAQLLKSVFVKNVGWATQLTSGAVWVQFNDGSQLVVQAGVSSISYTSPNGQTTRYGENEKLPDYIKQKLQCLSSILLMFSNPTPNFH

AMPK (A2/B1/G2) = AMPK (A2/B1/G2) (Homo sapiens, UniProt P54646); assay: SelectScreen kinase profiling, ZLYTE; type: biochemical
Chain of AMPK (A2/B1/G2) (P54646 whole entry): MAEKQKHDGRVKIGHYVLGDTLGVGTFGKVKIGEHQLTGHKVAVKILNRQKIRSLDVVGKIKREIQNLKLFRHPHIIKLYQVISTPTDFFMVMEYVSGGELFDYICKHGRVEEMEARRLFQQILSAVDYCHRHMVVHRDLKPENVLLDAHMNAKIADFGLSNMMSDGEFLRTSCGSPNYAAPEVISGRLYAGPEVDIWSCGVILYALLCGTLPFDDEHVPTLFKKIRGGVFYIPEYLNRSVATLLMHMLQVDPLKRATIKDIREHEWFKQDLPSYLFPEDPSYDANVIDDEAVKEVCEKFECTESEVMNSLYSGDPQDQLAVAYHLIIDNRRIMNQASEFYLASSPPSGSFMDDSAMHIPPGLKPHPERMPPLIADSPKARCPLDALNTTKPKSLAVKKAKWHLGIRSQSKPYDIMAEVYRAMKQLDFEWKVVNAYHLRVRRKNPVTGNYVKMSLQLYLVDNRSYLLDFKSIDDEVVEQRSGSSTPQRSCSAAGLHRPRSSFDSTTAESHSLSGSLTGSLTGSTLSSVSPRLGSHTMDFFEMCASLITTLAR
Chain of AMPK (A2/B1/G2) (Q9Y478 whole entry partner): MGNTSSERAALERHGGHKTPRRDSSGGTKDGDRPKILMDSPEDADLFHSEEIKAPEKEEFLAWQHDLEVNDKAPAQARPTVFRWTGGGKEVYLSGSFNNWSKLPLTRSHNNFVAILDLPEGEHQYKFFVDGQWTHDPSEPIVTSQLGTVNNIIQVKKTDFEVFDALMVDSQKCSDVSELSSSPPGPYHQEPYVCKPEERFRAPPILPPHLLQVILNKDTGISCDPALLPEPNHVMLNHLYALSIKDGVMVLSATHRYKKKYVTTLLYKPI
Chain of AMPK (A2/B1/G2) (Q9UGJ0 whole entry partner): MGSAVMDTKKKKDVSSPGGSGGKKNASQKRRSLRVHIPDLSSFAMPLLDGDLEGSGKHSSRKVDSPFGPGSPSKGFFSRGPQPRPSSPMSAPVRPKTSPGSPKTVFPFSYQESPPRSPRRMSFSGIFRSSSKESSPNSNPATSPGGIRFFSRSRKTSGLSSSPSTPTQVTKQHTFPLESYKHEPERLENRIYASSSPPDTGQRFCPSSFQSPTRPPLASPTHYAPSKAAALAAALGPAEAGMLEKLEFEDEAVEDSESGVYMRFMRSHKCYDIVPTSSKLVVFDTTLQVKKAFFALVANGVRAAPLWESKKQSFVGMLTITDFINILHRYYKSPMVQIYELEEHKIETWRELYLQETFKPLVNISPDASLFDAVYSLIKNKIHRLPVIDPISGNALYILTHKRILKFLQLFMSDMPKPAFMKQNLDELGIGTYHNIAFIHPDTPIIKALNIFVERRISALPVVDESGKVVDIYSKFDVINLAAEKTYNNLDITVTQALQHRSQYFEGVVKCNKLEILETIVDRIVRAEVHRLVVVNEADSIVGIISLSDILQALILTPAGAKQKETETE

Chain of BMPR1A (ALK3) (P36894 24-532): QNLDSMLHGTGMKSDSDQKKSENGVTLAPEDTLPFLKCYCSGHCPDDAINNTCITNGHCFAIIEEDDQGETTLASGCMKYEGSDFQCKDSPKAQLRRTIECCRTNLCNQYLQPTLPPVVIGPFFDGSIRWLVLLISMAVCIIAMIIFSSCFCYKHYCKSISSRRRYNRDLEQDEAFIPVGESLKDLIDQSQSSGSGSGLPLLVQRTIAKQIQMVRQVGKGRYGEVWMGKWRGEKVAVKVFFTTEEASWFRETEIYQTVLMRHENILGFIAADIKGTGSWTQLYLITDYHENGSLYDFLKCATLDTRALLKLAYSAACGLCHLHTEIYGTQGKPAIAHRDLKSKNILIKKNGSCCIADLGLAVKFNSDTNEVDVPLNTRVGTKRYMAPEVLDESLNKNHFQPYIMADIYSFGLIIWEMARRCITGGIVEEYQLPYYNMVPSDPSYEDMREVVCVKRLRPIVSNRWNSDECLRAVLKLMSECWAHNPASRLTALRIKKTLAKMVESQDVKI
Chain of AKT2 (PKB beta) (P31751 whole entry): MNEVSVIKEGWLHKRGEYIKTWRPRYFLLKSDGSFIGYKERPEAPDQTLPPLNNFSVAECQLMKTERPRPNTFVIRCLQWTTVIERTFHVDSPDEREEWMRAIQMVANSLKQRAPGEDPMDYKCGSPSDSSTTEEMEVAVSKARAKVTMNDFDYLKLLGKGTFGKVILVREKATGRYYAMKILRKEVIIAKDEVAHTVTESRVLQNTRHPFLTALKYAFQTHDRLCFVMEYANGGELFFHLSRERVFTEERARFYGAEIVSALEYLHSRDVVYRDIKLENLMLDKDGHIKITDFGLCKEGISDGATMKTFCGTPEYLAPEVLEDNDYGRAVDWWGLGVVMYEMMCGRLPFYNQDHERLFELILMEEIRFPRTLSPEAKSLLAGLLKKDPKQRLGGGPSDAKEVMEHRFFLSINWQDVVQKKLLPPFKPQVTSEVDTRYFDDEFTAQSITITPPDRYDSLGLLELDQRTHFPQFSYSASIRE
Chain of NUAK2 (Q9H093 whole entry): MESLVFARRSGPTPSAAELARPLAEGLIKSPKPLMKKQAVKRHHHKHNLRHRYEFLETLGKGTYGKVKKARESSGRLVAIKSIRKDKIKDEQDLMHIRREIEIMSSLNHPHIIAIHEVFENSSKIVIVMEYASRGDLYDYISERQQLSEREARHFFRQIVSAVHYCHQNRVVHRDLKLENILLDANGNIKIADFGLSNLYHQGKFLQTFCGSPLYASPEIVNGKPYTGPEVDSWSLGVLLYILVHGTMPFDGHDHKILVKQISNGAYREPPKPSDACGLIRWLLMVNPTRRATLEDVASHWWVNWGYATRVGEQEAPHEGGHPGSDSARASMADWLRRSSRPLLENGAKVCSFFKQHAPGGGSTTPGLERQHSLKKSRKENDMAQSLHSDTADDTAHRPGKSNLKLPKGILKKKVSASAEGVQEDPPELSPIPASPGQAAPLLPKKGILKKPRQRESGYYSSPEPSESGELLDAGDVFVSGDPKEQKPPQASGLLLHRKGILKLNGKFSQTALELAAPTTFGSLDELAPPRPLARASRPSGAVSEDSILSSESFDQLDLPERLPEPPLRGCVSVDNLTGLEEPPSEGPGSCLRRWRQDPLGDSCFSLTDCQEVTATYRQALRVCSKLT
Chain of AMPK (A1/B2/G1) (Q13131 whole entry): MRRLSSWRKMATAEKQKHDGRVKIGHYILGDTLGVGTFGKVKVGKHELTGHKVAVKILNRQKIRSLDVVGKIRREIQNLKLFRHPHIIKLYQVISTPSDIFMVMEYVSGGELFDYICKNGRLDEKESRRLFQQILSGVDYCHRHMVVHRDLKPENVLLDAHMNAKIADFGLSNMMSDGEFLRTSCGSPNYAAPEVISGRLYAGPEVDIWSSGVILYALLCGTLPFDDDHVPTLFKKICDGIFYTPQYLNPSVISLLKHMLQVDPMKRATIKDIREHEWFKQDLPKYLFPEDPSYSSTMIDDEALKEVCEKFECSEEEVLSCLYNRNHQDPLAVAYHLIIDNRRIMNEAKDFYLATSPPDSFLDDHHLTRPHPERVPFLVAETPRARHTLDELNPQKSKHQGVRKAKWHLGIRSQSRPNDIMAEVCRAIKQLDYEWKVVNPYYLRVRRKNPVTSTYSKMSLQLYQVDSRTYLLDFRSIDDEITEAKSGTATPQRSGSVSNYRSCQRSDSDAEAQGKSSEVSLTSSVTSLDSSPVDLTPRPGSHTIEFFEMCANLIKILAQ
Chain of AMPK (A1/B2/G1) (O43741 whole entry partner): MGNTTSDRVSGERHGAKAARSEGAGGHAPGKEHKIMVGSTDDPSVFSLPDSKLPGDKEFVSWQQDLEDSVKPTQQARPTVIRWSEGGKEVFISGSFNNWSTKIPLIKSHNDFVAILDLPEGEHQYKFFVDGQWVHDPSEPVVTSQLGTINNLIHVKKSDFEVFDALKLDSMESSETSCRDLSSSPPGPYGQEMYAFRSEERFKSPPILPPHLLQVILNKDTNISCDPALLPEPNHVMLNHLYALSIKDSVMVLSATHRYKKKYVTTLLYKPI
Chain of AMPK (A1/B2/G1) (P54619 whole entry partner): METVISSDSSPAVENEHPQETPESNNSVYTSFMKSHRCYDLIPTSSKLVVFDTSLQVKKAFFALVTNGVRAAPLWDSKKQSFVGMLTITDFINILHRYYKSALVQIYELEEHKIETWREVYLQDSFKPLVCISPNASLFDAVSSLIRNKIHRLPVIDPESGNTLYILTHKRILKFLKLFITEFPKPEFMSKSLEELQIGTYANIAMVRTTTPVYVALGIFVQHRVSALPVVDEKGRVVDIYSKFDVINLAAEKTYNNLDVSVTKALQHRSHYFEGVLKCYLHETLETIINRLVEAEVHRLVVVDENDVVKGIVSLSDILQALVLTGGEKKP
Chain of PIP5K1A (Q99755 whole entry): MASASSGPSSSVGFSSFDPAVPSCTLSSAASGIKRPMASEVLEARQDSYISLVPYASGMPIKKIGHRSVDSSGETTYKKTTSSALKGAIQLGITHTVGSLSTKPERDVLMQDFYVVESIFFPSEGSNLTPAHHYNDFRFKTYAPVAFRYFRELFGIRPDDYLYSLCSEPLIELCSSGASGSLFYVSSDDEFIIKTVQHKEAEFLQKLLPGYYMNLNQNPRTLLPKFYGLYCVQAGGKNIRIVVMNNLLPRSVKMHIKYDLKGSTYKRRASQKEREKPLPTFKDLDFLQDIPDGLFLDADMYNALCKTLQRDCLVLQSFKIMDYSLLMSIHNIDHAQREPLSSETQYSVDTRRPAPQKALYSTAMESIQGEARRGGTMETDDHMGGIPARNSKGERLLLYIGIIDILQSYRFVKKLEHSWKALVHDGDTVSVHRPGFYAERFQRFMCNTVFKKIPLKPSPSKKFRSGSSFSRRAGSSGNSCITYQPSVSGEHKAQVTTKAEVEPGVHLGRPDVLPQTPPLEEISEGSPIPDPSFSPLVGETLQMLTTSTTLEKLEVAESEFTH

Work on O=C(c1ccc(/C=C/c2n[nH]c3ccccc23)cc1)N1CCNCC1 [KW-2449] yielded an inhibition at 10 µM (ACVR1B (ALK4)) of 39%, an inhibition at 10 µM (PKN2 (PRK2)) of 65% and an inhibition at 10 µM (CDK4/cyclin D3) of 83%. For the same compound, the inhibition at 10 µM (MAP2K2 (MEK2)) was 73%, the inhibition at 10 µM (STK22B (TSSK2)) was 74% and the inhibition at 10 µM (NUAK2) was 62%. The inhibition at 10 µM (ROS1) was 98%, the inhibition at 10 µM (DDR2 T654M) was 84% and the inhibition at 10 µM (CDK5/p25) was 97%. The inhibition at 10 µM (GRK6) was 62%, the inhibition at 10 µM (ABL1 F317I) was 94% and the inhibition at 10 µM (AMPK (A1/B2/G1)) was 77%. The inhibition at 10 µM (CLK1) was 99%, the inhibition at 10 µM (PDK1) was 77% and the inhibition at 10 µM (RET A883F) was 99%. It also gave an inhibition at 10 µM (BMPR1A (ALK3)) of 98%, an inhibition at 10 µM (PI4KA (PI4K alpha)) of 7% and an inhibition at 10 µM (PIP5K1A) of 16%. For the same compound, the inhibition at 10 µM (AKT2 (PKB beta)) was 29%, the inhibition at 10 µM (MST4) was 92% and the inhibition at 10 µM (NTRK2 (TRKB)) was 99%. For the same compound, the inhibition at 10 µM (CDK6/cyclin D1) was 82%, the inhibition at 10 µM (PRKCI (PKC iota)) was 7% and the inhibition at 10 µM (STK17A (DRAK1)) was 85%. For the same compound, the inhibition at 10 µM (BRAF) was 67%, the inhibition at 10 µM (RIPK2) was 77% and the inhibition at 10 µM (PLK4) was 61%. For the same compound, the inhibition at 10 µM (AMPK (A2/B1/G2)) was 97%.
